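These data come from cells grown in 96-well plates and exposed to compound for 48 hours at five concentrations. Here, GI50 denotes the concentration required for 50% inhibition of growth. TGI marks complete inhibition of growth.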
Experiments:
Experiment in all cases: NCI-60 cell line screen, 48 h
IGROV1 ovarian = system: IGROV1 ovarian
MDA-MB-231 breast = system: MDA-MB-231 breast
HCT-116 colon = system: HCT-116 colon
UO-31 renal = system: UO-31 renal
K-562 leukemia = system: K-562 leukemia
SK-MEL-5 melanoma = system: SK-MEL-5 melanoma
M14 melanoma = system: M14 melanoma
SF-295 CNS = system: SF-295 CNS
OVCAR-5 ovarian = system: OVCAR-5 ovarian
NCI/ADR-RES ovarian = system: NCI/ADR-RES ovarian

Compound | GI50 (IGROV1 ovarian) [µM] | TGI (IGROV1 ovarian) [µM] | GI50 (MDA-MB-231 breast) [µM] | TGI (MDA-MB-231 breast) [µM] | GI50 (HCT-116 colon) [µM] | TGI (HCT-116 colon) [µM] | GI50 (UO-31 renal) [µM] | TGI (UO-31 renal) [µM] | GI50 (K-562 leukemia) [µM] | TGI (K-562 leukemia) [µM] | GI50 (SK-MEL-5 melanoma) [µM] | TGI (SK-MEL-5 melanoma) [µM] | GI50 (M14 melanoma) [µM] | TGI (M14 melanoma) [µM] | GI50 (SF-295 CNS) [µM] | TGI (SF-295 CNS) [µM] | GI50 (OVCAR-5 ovarian) [µM] | TGI (OVCAR-5 ovarian) [µM] | GI50 (NCI/ADR-RES ovarian) [µM] | TGI (NCI/ADR-RES ovarian) [µM]
Oc1cccc(-c2nc(-c3ccccc3)[nH]c2-c2ccncc2)c1 | 10.4 | > 25 | 9.59 | > 25 | 9.91 | > 25 | 10.1 | > 25 | 11.7 | > 25 | 3.59 | 14.7 | 1.71 | 12.6 | 14.7 | > 25 | 16.9 | > 25 | > 25 | > 25
COC1=CC2CCN3Cc4cc5c(cc4C(C1O)C23)OCC5 (stereo not given) | 4.59 | > 24.8 | 2.86 | 22.6 | 1.68 | > 49.4 | 5.88 | > 46.6 | 3.51 | > 100 | 2.18 | 8.89 | 3 | 19.3 | 3.88 | 24.4 | 2.48 | 22.8 | 3 | 18.4
COc1c2ccccc2c(O)c2c(=O)ccn(C)c12 | 30.9 | > 100 | 8.66 | > 61.4 | 3.13 | 13.1 | > 57.5 | > 100 | 7.5 | > 100 | 3.77 | 14.4 | 2.3 | 5.81 | 3.69 | 27.8 | 11.7 | 45 | 4.62 | 30
CC(=O)C(C=O)C(C)=O.CC(=O)CC(C)=O.CC(=O)CC(C)=O.[Ru] | 20.4 | 73.3 | 15.7 | 68.8 | 21.8 | > 100 | 26.9 | > 100 | 20.7 | > 100 | 0.0279 | 2.1 | 49.4 | > 100 | 16.2 | 68 | 32.2 | > 100 | 21.8 | 95
CC[C@@]1(O)C(=O)NCc2c1cc1n(c2=O)Cc2cc3c(NC(C)=O)cccc3nc2-1 | > 100 | > 100 | > 100 | > 100 | > 100 | > 100 | > 100 | > 100 | > 100 | > 100 | > 100 | > 100 | > 100 | > 100 | > 100 | > 100 | > 100 | > 100 | > 100 | > 100
CN1CCN(c2ccc(Nc3ncc4cc5n(c4n3)C3(CCCCC3)CNC5=O)nc2)CC1 | 2.42 | 16.4 | 1.34 | 10.5 | 1.81 | 11 | 0.67 | 12.9 | 2.17 | 18.4 | 3.2 | 15.6 | 1.76 | 11.7 | 3.09 | 18.4 | 0.491 | 12.2 | 5.77 | 26
COc1cc(NC(=O)c2ccccc2Nc2ccnc(C(F)(F)F)c2)cc(OC)c1OC | 35.1 | 89.7 | > 100 | > 100 | 49.6 | > 100 | 19.8 | 92.1 | 52.8 | > 100 | 25.4 | > 100 | 73.3 | > 100 | 41.9 | > 100 | > 100 | > 100 | 32.3 | > 100
CNCCN(C)Cc1cn[nH]c1-c1ccc(OC2CC(OCCC3CCOCC3)C2)cc1 (stereo not given) | 48.5 | > 100 | 40.7 | > 100 | > 67.9 | > 100 | 28 | > 100 | 33.3 | > 100 | 34 | > 100 | > 66.3 | > 100 | 49.9 | > 100 | > 100 | > 100 | > 100 | > 100
OCc1ccc(N(Cc2ccc(F)cc2)CC2CCC2)cc1Cl | 0.755 | 4.05 | 13.5 | 26.8 | 1.85 | 11.5 | 8.3 | 21 | 6.4 | 22.7 | 13.3 | 26.2 | 15.2 | 31.2 | 4.06 | 17.5 | 1.13 | 4.25 | 12.8 | 28
COC(=O)C1(C)CCCC2(C)c3cc(OC)ccc3C(=O)C(Br)C12 (stereo not given) | – | > 10 | – | > 10 | – | 7.23 | – | 3.28 | – | > 10 | – | > 10 | – | > 10 | – | > 10 | – | > 10 | – | > 10
O=c1c2cc(O)c(O)cc2oc2cc(O)c(C3OC(CO)C(O)C(O)C3O)c(O)c12 (stereo not given) | – | > 100 | – | > 100 | – | > 100 | – | > 100 | – | > 100 | – | > 100 | – | > 100 | – | > 100 | – | > 100 | – | > 100
N[C@@H](CSSC[C@H](N)C(=O)N1CCn2cc(-c3ccccc3)nc2[C@@H]1CC1CCCCC1)C(=O)N1CCn2cc(-c3ccccc3)nc2[C@@H]1CC1CCCCC1 | 2.41 | 5.96 | 1.74 | 3.68 | 1.14 | 2.51 | 1.69 | 3.61 | 1.48 | > 100 | 0.361 | 1.53 | 0.301 | 1.23 | 1.83 | 3.41 | 2.23 | 6.39 | 2.95 | 9.32
COc1ccc2c(c1)N(CCO)C1=C(C(=O)OC1)C2c1ccc(OC)c(OC)c1 (stereo not given) | 3.46 | > 100 | 3.63 | 10.7 | 2.64 | 15.3 | 4.65 | > 100 | 1.26 | > 100 | 2.63 | 15.5 | 2.44 | > 100 | 2.43 | > 100 | 5.76 | > 100 | 4.38 | 45.1
Cc1[nH]n(-c2cccc(Cl)c2)c(=O)c1/C=C1\C=c2ccccc2=CC1=O | 27.1 | > 100 | 36.1 | > 100 | > 100 | > 100 | > 100 | > 100 | 44.7 | > 100 | > 100 | > 100 | > 100 | > 100 | 23.2 | > 100 | > 100 | > 100 | > 100 | > 100
Cc1ccc(S(=O)(=O)CC2(Br)CCc3ccccc3C2=O)cc1 (stereo not given) | – | 41 | – | 84.9 | – | > 100 | – | 50.5 | – | > 100 | – | 38.4 | – | > 100 | – | > 100 | – | > 100 | – | > 100

— PubChem BioAssay (NCI)
